Measured values as given in patent publication US5290796A, “Substituted 3-piperidinealkanamines and alkanamides and compositions and method of use thereof” (Sterling Winthrop Inc., priority 1992, dated 1994).

How the values were obtained:
sigma receptors [1] = molecular target: T1, sigma receptors (Cavia porcellus, UniProt Q60492); assay: sigma receptor binding, [^3 H](+)-pentazocine; parameters: species or system guinea pig; details: approximately 0.5 nM radioligand, 37° C., 150 min; for inhibition at 10 µM: percent (%) inhibition of binding at 10 μM, guinea pig brain membranes; for Ki: mean of at least two separate determinations performed in triplicate
T1 construct: Brain tissue was prepared from male Hartley guinea pigs; tissue Hazelton Labs; host or cells: brain membranes of male Hartley guinea pigs
T1 sequence (Q60492 whole entry): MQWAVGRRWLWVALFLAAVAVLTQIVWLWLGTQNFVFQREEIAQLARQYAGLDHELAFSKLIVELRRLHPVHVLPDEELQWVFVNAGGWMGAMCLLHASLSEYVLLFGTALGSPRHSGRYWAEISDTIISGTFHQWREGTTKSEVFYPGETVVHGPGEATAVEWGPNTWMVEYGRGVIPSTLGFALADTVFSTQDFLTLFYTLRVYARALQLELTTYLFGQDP
Procedure: (§1) Brain tissue was prepared from male Hartley guinea pigs (Hazelton Labs, Denver, Pa.) which were anesthetized with CO2 and sacrificed by decapitation. All animal care and use procedures were in accord with the "Guide for the Care and Use of Laboratory Animals" (NIH Publ. No. 86-23, 1985). Homogenization was performed in 10 volumes (wt/vol) of 0.32M sucrose with a Brinkmann Polytron at setting 5, 30 sec. The homogenate was centrifuged at 900 x g for 10 min at 4° C., and the supernatant was collected and centrifuged at 22,000 x g for 20 min at 4° C. The pellet was resuspended in 10 volumes of Tris-HCl buffer (50 mM, pH 7.4), incubated at 37° C. for 30 min, and centrifuged at 22,000 x g for 20 min at 4° C. Following this, the pellet was resuspended in Tris buffer and frozen in 5-10 mL aliquots corresponding to a tissue concentration of 100 mg/mL, at -70° C. Binding characteristics of the membranes were stable for at least one month when stored at -70° C.
On the day of the assay, membrane aliquots were thawed, resuspended in fresh Tris-HCl buffer and stored on ice until use. Each assay tube contained 100 μL of [^3 H]-(+)-pentazocine at a final concentration of approximately 0.5 nM or 100 μL of [^3 H]di(2-tolyl)guanidine (DTG) at a final concentration of approximately 4 nM, 100 μL of various concentrations of the compounds of interest, 500 μL of the tissue suspension and 300 μL of buffer to a final assay volume of 1 mL and a final tissue concentration of approximately 8 mg/tube, corresponding to approximately 0.15 mg protein/tube. Non-specific binding was defined by addition of a final concentration of 1 μM haloperidol to blank tubes for [^3 H](+)-pentazocine assay or by addition of a final concentration of 10 μM haloperidol to blank tubes for [^3 H]DTG assay. All tubes were incubated at 37° C. for 150 min in the [^3 H](+)-pentazocine assay or at 25° C. for 90 min in the [^3 H]DTG assay before termination of the reaction by rapid filtration over Whatman GF/B glass fiber filters that were presoaked in a solution of 0.5% polyethyleneimine for at least 1 hr prior to use. Filters were washed with three 4 ml volumes of cold Tris-HCl buffer.
Following addition of scintillation cocktail, samples were allowed to equilibrate for at least 4 hr. The amount of bound radioactivity was determined by liquid scintillation spectrometry using a Beckman LS 5000 TA liquid scintillation counter with an efficiency for tritium of approximately 60%. The results are reported as a percent (%) inhibition of binding at 10 μM.
(§2) Scatchard parameters and inhibition constants (Ki values) for the binding of test compounds were also calculated using the EBDA/LIGAND program (McPherson, J Pharmacol. Meth. 1985, 14, 213-228), purchased from Elsevier/Biosoft, Inc. The Ki values are expressed as the mean of at least two separate determinations performed in triplicate.

sigma receptors [2] = assay: sigma receptor binding, [^3 H]di(2-tolyl)guanidine (DTG); parameters: species or system guinea pig; details: approximately 4 nM radioligand, 25° C., 90 min
Procedure: as §1, with “Following this, the pellet was resuspended in Tris buffer and frozen in 5-10 mL aliquots corresponding to a tissue concentration of 100 mg/mL, at -70° C. Binding characteristics of the membranes were stable for at least one month when stored at -70° C.” left out
Following addition of scintillation cocktail, samples were allowed to equilibrate for at least 4 hr. The amount of bound radioactivity was determined by liquid scintillation spectrometry using a Beckman LS 5000 TA liquid scintillation counter with an efficiency for tritium of approximately 60%. […]
as §2

SMILES	inhibition at 10 µM (sigma receptors [1]) [%]	also measured
C[C@@H]1CCN(C)[C@@H](C)[C@]1(C)CCNC1CCCC1 (relative stereo) [Example 1c, N-cyclopentyl-1,2,3,4-tetramethyl-3-piperidineethanamine]	57	–
C[C@@H]1CCN(Cc2ccccc2)[C@@H](C)[C@]1(C)CCN (relative stereo) [Example 2b, 2,3,4-trimethyl-1-(phenylmethyl)-3-piperidineethanamine]	83	–
C[C@@H]1CCN(C)[C@@H](C)[C@]1(C)CCN(C)C1CCCC1 (relative stereo) [Example 3, N-cyclopentyl-N-1,2,3,4-pentamethyl-3-piperidineethanamine]	90	–
C[C@@H]1CCN(C)[C@@H](C)[C@]1(C)CCN(C)C (relative stereo) [Example 4, N,N-1,2,3,4-hexamethyl-3-piperidineethanamine]	–	Ki (sigma receptors [1]): 23.9 µM; [^3 H]DTG Percent Inhibition (sigma receptors [2]; percent (%) inhibition of binding at 10 μM, guinea pig brain membranes): 20%
C[C@@H]1CCN(C)[C@@H](C)[C@]1(C)CCNC(=O)c1ccsc1 (relative stereo) [Example 5, N-[2-(1,2,3,4-tetramethyl-3-piperidinyl)-ethyl]-3-thiophenecarboxamide]	79	–
CCOC(=O)NCC[C@]1(C)[C@H](C)CCN(C)[C@H]1C (relative stereo) [Example 6, ethyl-2-(1,2,3,4-tetramethyl-3-piperidinyl)ethyl carbamate]	69	–
C[C@@H]1CCN(C)[C@@H](C)[C@]1(C)CCN(C)C(=O)Cc1ccc(Cl)c(Cl)c1 (relative stereo) [Example 7b, 3,4-dichloro-N-methyl-N-[2-(1,2,3,4-tetramethyl-3-piperidinyl)ethyl]benzeneacetamide]	94	–
C[C@@H]1CCN(C)[C@@H](C)[C@]1(C)CCN1CCCC1 (relative stereo) [Example 10, 1,2,3,4-tetramethyl-3-[2-(1-pyrrolidinyl)ethyl]piperidine]	–	Ki (sigma receptors [1]): 5.98 µM; Ki (sigma receptors [2]; mean of at least two separate determinations performed in triplicate): 7.51 µM
